Assay results: US20060135768A1, “Synthesis for hydroxyalkylated heterocyclic bases” (RIBAPHARM INC., priority 2002, published 2006)
Converted amounts (≈) assume the structure as drawn.

Test: Solubility of the heterocyclic base (adenine) in reaction solvents
Type: physicochemical

Solubility at 150° C. (solvent DEF): 13.9 mg/mL (≈ 103 mM)
Solubiity at RT (solvent DEF): 1.36 mg/mL
Solubility at 150° C. (solvent DMA): 37.0 mg/mL (≈ 274 mM)
Solubiity at RT (solvent DMA): 4.00 mg/mL
Solubility at 150° C. (solvent DMF): 29.0 mg/mL (≈ 215 mM)
Solubiity at RT (solvent DMF): 2.90 mg/mL
Compound: Nc1ncnc2nc[nH]c12 [adenine]
